Source: patent publication US20060270705A1, “Method for inhibiting lipid absorption and lipid absorption inhibitor” (Japan Tobacco Inc., priority 2005, published 2006)

Columns and labels:
CETP = CETP activity in hamster plasma after oral dosing: [3H]CE transfer from donor [3H]CE-HDL3 to hamster apoB-containing lipoprotein; type: in vivo, normal syrian hamsters; settings: proportion relative to control group = 100%; for CETP Inhibitory Activity (%): Test 1, plasma 4 hours after olive oil; for CETP Inhibitory Activity (%) (8 hours): Test 2, 30 mg/kg oral, plasma 8 hours after oil loading
Method: Potassium bromide (KBr) was added to plasma (40 mL) of a healthy subject, adjusted to have a specific density d=1.125 g/mL, and subjected to fractional ultracentrifugation (288,000×g, 4° C., 18 to 20 hr), and a fraction showing a specific density of d>1.125 g/mL (HDL3 fraction) was harvested. The obtained fraction was dialyzed against PBS solution [10 mmol/L Na2HPO4; 10 mmol/L NaH2PO4; 0.15 mol/L NaCl; 1 mmol/L EDTA (pH 7.4)]. Then, tritium-labeled cholesterol (37 MBq) was dissolved in 95% ethanol, gradually added to the above-mentioned HDL3 fraction with stirring and incubated at 37° C. for 18 to 24 hr. [By this operation, tritium-labeled cholesterol was esterified by the action of lecithin cholesterol acyl transferase (LCAT) present on the HDL3 surface and taken up into HDL3 as tritium-labeled cholesteryl ester ([^3H]CE)]. After incubation, KBr was added, the specific density was adjusted to d=1.21 g/mL, and subjected to fractional ultracentrifugation (285,000×g, 4° C., 70 to 90 hr), and a fraction of specific density […] was harvested. The obtained fraction was dialyzed against the aforementioned PBS solution to give HDL3 incorporating [^3H]CE ([^3H]CE-HDL3, specific density: 1.125<d<1.21, specific activity: 22,000-33,000 dpm/μL) as a donor lipoprotein.
(§1) Three kinds of CETP inhibitors (compound A: 40 mg/kg, compound B: 3 mg/kg, compound C: 3 mg/kg) suspended in 0.5% aqueous methylcellulose were orally administered to normal syrian hamsters (male, 13-week old). Only 0.5% aqueous methylcellulose was administered to the control group. After 30 minutes, olive oil at a dose of 2 mL/kg was orally loaded. Blood was collected from ophthalmic venous plexus 4 hours after the administration of olive oil, and plasma triglyceride (TG) concentration and CETP inhibitory activity were measured. Plasma triglyceride (TG) concentration was measured by enzymatic method. For CETP activity, the amount of [^3H]CE transferred from donor lipoprotein ([^3H]CE-HDL3) to acceptor lipoprotein (hamster apoB-containing lipoprotein) was used as index.
(§2) Using a test system similar to Test 1, the effects of compound B (30 mg/kg) and compound C (30 mg/kg) in normal syrian hamsters (male, 12-week old) were examined. Blood collection was carried out at 4 and 8 hours after oil loading, and plasma triglyceride (TG) concentration and CETP inhibitory activity were measured.

[1] = system: lipid absorption in the small intestine; assay: Inhibitory effect on lipid absorption in the small intestine: plasma triglyceride after oral olive oil loading in hamsters; type: in vivo, normal syrian hamsters; settings: control group = 100%; for TG Concentration (%): Test 1, olive oil 2 mL/kg 30 min later, plasma 4 hours after olive oil, male 13-week old hamsters; for TG Concentration (4 hours) / TG Concentration (%) (8 hours): Test 2, 30 mg/kg oral, male 12-week old hamsters; for TG Concentration (4 hours): plasma 4 hours after oil loading; for TG Concentration (%) (8 hours): plasma 8 hours after oil loading
Method: Test of Inhibitory Effect on Lipid Absorption in the Small Intestine by Various CETP Inhibitors in Hamsters
as §1, §2

[2] = 3 mg/kg oral in 0.5% methylcellulose

| Structure (SMILES) | CETP Inhibitory Activity (%) (CETP; 40 mg/kg oral) | TG Concentration (%) ([1]; 40 mg/kg oral in 0.5% methylcellulose) | CETP Inhibitory Activity (%) (CETP; 3 mg/kg oral) | CETP Inhibitory Activity (%) (8 hours) (CETP) | TG Concentration (%) [1, 2] [%] | TG Concentration (4 hours) [1] [%] | TG Concentration (%) (8 hours) [1] |
| --- | --- | --- | --- | --- | --- | --- | --- |
| CCC(CC)CC1(C(=O)Nc2ccccc2SC(=O)C(C)C)CCCCC1 [Compound A, S-{2-([[1-(2-ethylbutyl)cyclohexyl]carbonyl]amino)phenyl}2-methylpropanethioate] | 83 | 87 |  |  |  |  |  |
| CCN(C[C@H]1CC[C@H](CC(=O)O)CC1)c1cc(C)c(C(F)(F)F)cc1CN(Cc1cc(C(F)(F)F)cc(C(F)(F)F)c1)c1nnn(C)n1.CS(=O)(=O)O [Compound B, trans-(4-{[N-(2-{[N′-[3,5-bis(trifluoromethyl)benzyl]-N′-(2-methyl-2H-tetrazol-5-yl)amino]methyl}-5-methyl-4-trifluoromethylphenyl)-N-ethylamino]methyl}cyclohexyl)acetic acid methanesulfonate] |  |  | 29 | 29 | 69 | 66 | 56 |
| CCOC(=O)N1c2ccc(C(F)(F)F)cc2[C@@H](N(Cc2cc(C(F)(F)F)cc(C(F)(F)F)c2)C(=O)OC)C[C@H]1CC [Compound C] |  |  | 20 | 37 | 69 | 85 | 71 |
